Results taken from patent US12257243B2, “5-hydroxy-7-oxabicyclo[2.2.1]heptane-2-carboxamide derivatives for inducing chondrogenesis for treating joint damage” (NOVARTIS AG, priority 2018, dated 2025).
Where two headings read alike, the source gives them in different places.

Biological target: ALP in normal human articular chondrocytes (NHACs)
Assay: Alkaline Phosphatase (ALP) activity assay (staining and quantitation) in NHACs, prevention of chondrocyte hypertrophy
Type: cell-based
Settings: human IL-1 beta 10 ng/mL, 12 days; for IC50: Fast Blue RR staining, high content imaging, read-out: ALP in NHAC IC50; for ALP in NHAC (% Efficacy) / Emax: value in parentheses; for Emax: read-out: ALP in NHAC (% Efficacy)
Procedure: The compounds of the present invention were evaluated in the Alkaline Phosphatase (ALP) activity assay to determine the ability of the compounds to prevent chondrocyte hypertrophy in normal human articular chondrocytes (NHACs).
Normal human articular chondrocytes (NHACs) were purchased from PromoCell (Heidelberg, Germany) and grown in Chondrocyte Growth Medium (CGM; Lonza, Walkersville, Md.).
NHACs were expanded in Chondrocyte Growth Medium (CGM) from Lonza until they reached a 60-80% confluency. To initiate differentiation, 7,500 cells were plated/well with indicated test compound dose in 384-well Cell Carrier Ultra plates (Perkin Elmer) with DMEM (SH30022—HyClone) containing 10% FBS (35-015-CV—Corning), 1% Pen/Strep antibiotics (SV30010—HyClone), and 1% Normocin (50 mg/mL—InvivoGen). Cells with test compounds were incubated at 37° C., 5% CO2 for 5 hours and then added human IL-1 beta (AF-200-1B—Peprotech) to each well at a final concentration of 10 ng/mL and incubated at 37° C., 5% CO2 for 12 days.
To detect the presence of hypertrophic cells, NHACs were fixed with 4% paraformaldehyde and Hoechst 33342 (Invitrogen) dye for 30 minutes, rinsed in PBS, then stained with Fast Blue RR Salt (F0500—Sigma) with Naphthol AS-MX Phosphate Alkaline Solution, 0.25% (855—Sigma-Aldrich).
The staining was imaged by fluorescent microscopy, using the 561 nm wavelength, and/or quantified by high content imaging with the Image press Confocal (Molecular Devices, Sunnyvale, Calif.). Data analyses were performed with a customized multiwavelength cell-scoring application.

SMILES	IC50 (Chondrocyte, 288 h) [µM]	Emax (Chondrocyte, 288 h) [%]	further results
Cn1cc([C@H]2[C@H]3O[C@H](C[C@@H]3O)[C@@H]2C(=O)Nc2cc(C(F)(F)F)ccc2C#N)c(C(F)(F)F)n1 (single isomer, unassigned) [Example 49a, (1R,2R,3S,4R,5N-(2-cyano-5-(trifluoromethyl)phenyl)-5-hydroxy-3-(1-methyl-3-(trifluoromethyl)-1H-pyrazol-4-yl)-7-oxabicyclo[2.2.1]heptane-2-carboxamide or (1S,2S,3R,4S,5R)—N-(2-cyano-5-(trifluoromethyl)phenyl)-5-hydroxy-3-(1-methyl-3-(trifluoromethyl)-1H-pyrazol-4-yl)-7-oxabicyclo[2.2.1]heptane-2-carboxamide]	–	–	IC50: 1.9 µM; ALP in NHAC (% Efficacy): 101%
O=C(Nc1ccc(N2CCOCC2)c(C(F)(F)F)c1)[C@@H]1[C@@H](c2cccc(C(F)(F)F)c2)[C@H]2O[C@@H]1C[C@@H]2O (racemic) [Example 23, rac-(1R,2R,3S,4R,5S)-5-hydroxy-N-(4-morpholino-3-(trifluoromethyl)phenyl)-3-(3-(trifluoromethyl)phenyl)-7-oxabicyclo[2.2.1]heptane-2-carboxamide]	17	108	–
O=C(Nc1cc(C(F)(F)F)ccn1)[C@@H]1[C@@H](c2cccc(C(F)(F)F)c2)[C@H]2O[C@@H]1C[C@@H]2O (racemic) [Example 4, rac-(1R,2R,3S,4R,5S)-5-hydroxy-3-(3-trifluoromethyl)phenyl)-N-(4-(trifluoromethyl)pyridin-2-yl)-7-oxabicyclo[2.2.1]heptane-2-carboxamide]	7.1	90	–
Cc1cc(C(F)(F)F)cc(NC(=O)[C@@H]2[C@@H](c3cn(C)nc3C(F)(F)F)[C@H]3O[C@@H]2C[C@@H]3O)n1 (racemic) [Example 41, rac-(1R,2R,3S,4R,5S)-5-hydroxy-3-(1-methyl-3-(trifluoromethyl)-1H-pyrazol-4-yl)-N-(6-methyl-4-(trifluoromethyl)pyridin-2-yl)-7-oxabicyclo[2.2.1]heptane-2-carboxamide]	6.3	61	–
Cn1nc(C(F)(F)F)cc1[C@H]1[C@H]2O[C@H](C[C@@H]2O)[C@@H]1C(=O)Nc1cc(C(F)(F)F)ccc1F (racemic) [Example 75, rac-(1R,2R,3S,4R,5S)—N-(2-fluoro-S-trifluoromethyl)phenyl)-5-hydroxy-3-(1-methyl-3-(trifluoromethyl)-1H-pyrazol-5-yl)-7-oxabicyclo[2.2.1]heptane-2-carboxamide]	> 30	46	–
Cc1ccc(C(F)(F)F)cc1NC(=O)[C@@H]1[C@@H](c2cccc(C(F)(F)F)c2)[C@H]2O[C@@H]1C[C@@H]2O (racemic) [Example 14, rac-(1R,2R,3S,4R,5S)-5-hydroxy-N-(2-methyl-5-(trifluoromethyl)phenyl)-3-(3-(trifluoromethyl)phenyl)-7-oxabicyclo[2.2.1]heptane-2-carboxamide]	13	78	–
CC(C)n1cc([C@H]2[C@H]3O[C@H](C[C@@H]3O)[C@@H]2C(=O)Nc2cccc(C(F)(F)F)c2)c(C(F)(F)F)n1 (racemic) [Example 59, rac-(1R,2R,3S,4R,5S)-5-hydroxy-3-(1-isopropyl-3-(trifluoromethyl)-1H-pyrazol-4-yl)-N-(3-(trifluoromethyl)phenyl)-7-oxabicyclo[2.2.1]heptane-2-carboxamide]	14	70	–
O=C(Nc1cc(C(F)(F)F)cc(Cl)n1)[C@@H]1[C@@H](c2cccc(C(F)(F)F)c2)[C@H]2O[C@@H]1C[C@@H]2O (racemic) [Example 5, rac-(1R,2R,3S,4R,5S)—N-(6-chloro-4-(trifluoromethyl)pyridin-2-yl)-5-hydroxy-3-(3-(trifluoromethyl)phenyl)-7-oxabicyclo[2.2.1]heptane-2-carboxamide]	27	82	–
COc1cc(NC(=O)[C@@H]2[C@@H](c3cccc(C(F)(F)F)c3)[C@H]3O[C@@H]2C[C@@H]3O)cc(C(F)(F)F)c1 (racemic) [Example 21, rac-(1R,2R,3S,4R,5S)-5-hydroxy-N-(3-methoxy-5-trifluoromethyl)phenyl)-3-(3-(trifluoromethyl)phenyl)-7-oxabicyclo[2.2.1]heptane-2-carboxamide]	24	104	–
Cn1cc([C@H]2[C@H]3O[C@H](C[C@@H]3O)[C@@H]2C(=O)Nc2ccc(F)c(C(F)(F)F)c2)c(C(F)(F)F)n1 (racemic) [Example 43]	7.9	59	–
COc1cc([C@H]2[C@H]3O[C@H](C[C@@H]3O)[C@@H]2C(=O)Nc2ccc(C(F)(F)F)c(Cl)c2)ccn1 (racemic) [Example 79, rac-(1R,2R,3S,4R,5S)—N-(3-chloro-4-trifluoromethyl)phenyl)-5-hydroxy-3-(2-methoxypyridin-4-yl)-7-oxabicyclo[2.2.1]heptane-2-carboxamide]	12	75	–
Cn1nc(C(F)(F)F)cc1[C@H]1[C@H]2O[C@H](C[C@@H]2O)[C@@H]1C(=O)Nc1cc(C(F)(F)F)ccc1C#N (single isomer, unassigned) [Example 72b, (1R,2R,3S,4R,5S)—N-(2-cyano-5-(trifluoromethyl)phenyl)-5-hydroxy-3-(1-methyl-3-(trifluoromethyl)-1H-pyrazol-5-yl)-7-oxabicyclo[2.2.1]heptane-2-carboxamide or (1S,2S,3R,4S,5R)—N-(2-cyano-5-(trifluoromethyl)phenyl)-5-hydroxy-3-(1-methyl-3-(trifluoromethyl)-1-pyrazol-5-yl)-7-oxabicyclo[2.2.1]heptane-2-carboxamide]	–	–	IC50 (listed as 72?): 1.8 µM; ALP in NHAC (% Efficacy) (listed as 72?): 88%
O=C(Nc1ccc(C(F)(F)F)nc1)[C@@H]1[C@@H](c2cccc(C(F)(F)F)c2)[C@H]2O[C@@H]1C[C@@H]2O (racemic) [Example 27, rac-(1R,2R,3S,4R,5S)-5-hydroxy-3-(3-(trifluoromethyl)phenyl)-N-(6-(trifluoromethyl)pyridin-3-yl)-7-oxabicyclo[2.2.1]heptane-2-carboxamide]	> 30	38	–
O=C(Nc1ccc(C(F)(F)F)c(Cl)n1)[C@@H]1[C@@H](c2cccc(C(F)(F)F)c2)[C@H]2O[C@@H]1C[C@@H]2O (single isomer, unassigned) [Example 25a, (1R,2R,3S,4R,5S)—N-(6-chloro-5-(trifluoromethyl)pyridin-2-yl)-5-hydroxy-3-(3-(trifluoromethyl)phenyl)-7-oxabicyclo[2.2.1]heptane-2-carboxamide or (1S,2S,3R,4S,5R)—N-(6-chloro-5-(trifluoromethylpyridin-2-yl)-5-hydroxy-3-(3-(trifluoromethyl)phenyl)-7-oxabicyclo[2.2.1]heptane-2-carboxamide]	–	–	IC50: 0.55 µM; ALP in NHAC (% Efficacy): 89%
Cn1cc([C@H]2[C@H]3O[C@H](C[C@@H]3O)[C@@H]2C(=O)Nc2cc(C(F)(F)F)ccc2C#N)c(C(F)(F)F)n1 (single isomer, unassigned) [Example 49b, (1R,2R,3S,4R,5N-(2-cyano-5-(trifluoromethyl)phenyl)-5-hydroxy-3-(1-methyl-3-(trifluoromethyl)-1H-pyrazol-4-yl)-7-oxabicyclo[2.2.1]heptane-2-carboxamide or (1S,2S,3R,4S,5R)—N-(2-cyano-5-(trifluoromethyl)phenyl)-5-hydroxy-3-(1-methyl-3-(trifluoromethyl)-1H-pyrazol-4-yl)-7-oxabicyclo[2.2.1]heptane-2-carboxamide]	–	–	IC50: 23 µM; ALP in NHAC (% Efficacy): 54%
